Like-named read-outs stand apart in the source and are kept apart here. Peptide text beside a SMILES is read from it.
What was measured:
circular dichroism = details: 10 mM phosphate buffered saline (par. 0128, each peptide; pH given only for 22 and 25, Fig 6B), pH 7.4, ns °C
MDA-MB-231-HRE-Luc cells = format: cell-based
Experimental: MDA-MB-231-HRE-Luc cells were maintained in high glucose Dulbecco's Modified Eagle's Medium (“DMEM”) supplemented with 10% fetal bovine serum and 0.4 g/L Geneticin (G418 sulfate, RPI Corporation). Cells were plated in 24-well dishes (BD Falcon) at a density of […] using 1 mL of a 6.5×10^4 cell/mL suspension. […] Cells were incubated for 6 hours at 37° C. in a humidified atmosphere with 5% CO2. Hypoxia was induced by adding desferoxamine mesylate (DFO, Sigma) to a final concentration of 300 μM, and cells were incubated for an additional 18 hours. Whole cell lysates were isolated by washing the cells twice with ice cold PBS and then adding 150 μL of Cell Culture Lysis Reagent (“CCLR,” Promega). Lysate was collected, centrifuged at 13,000 rpm at 4° C., aliquoted, and stored at −80° C. Luciferase assays were conducted according to the manufacturer's instructions (Promega) using a Turner TD-20e Luminometer. Relative light intensity measurements were normalized by performing a Bradford assay to determine the protein content of the lysate used in the luciferase assay. Briefly, 50 μL of cell lysate/luciferase assay reagent mix was added to 200 μL of Bradford reagent and 750 μL of Millipore water in a 1.5 mL cuvette. Protein standards were created in the range of 1 μg/mL to 10 μg/mL with the appropriate amount of a 1 mg/mL BSA solution. Absorbance was measured at 595 nm using a DU-800 spectrophotometer. The experiments were carried out in triplicate with the error bars calculated as standard error of the mean.

p300 = p300 (Homo sapiens, UniProt Q09472); assay: Affinity for p300 by isothermal titration calorimetry; format: binding; details: for Kd: isothermal titration calorimetry, p300, read-out: Kd (ITC); for Affinity for p300 (in words): ITC
Description: Helix αA of HIF-1α C-TAD, shown in FIG. 1A and FIG. 1C, is critical for the interaction between the CH1 domain and HIF-1α, because mutation of its residues or hydroxylation of Asn803 is known to disrupt this complex and inhibit HIF-1α mediated transcription (Freedman et al., “Structural Basis for Recruitment of CBP/p300 by Hypoxia-inducible Factor-1α,” Proc. Nat'l Acad. Sci. USA 99:5367-72 (2002); Dames et al., “Structural Basis for Hif-1α/CBP Recognition in the Cellular Hypoxic Response,” Proc. Nat'1 Acad. Sci. USA 99:5271-6 (2002). Development of HBS helices as potential inhibitors of VEGF transcription was begun by mimicking the aA helix region of HIF-1. This helix consists of eight residues, […] (SEQ ID NO: 111), and features three residues, Asp-Cys-Glu, critical for binding with p300/CBP. Several linear peptides and their HBS α-helix analogs were designed to gauge the potential of these molecules to inhibit VEGF transcription in cell culture. Each unconstrained peptide and HBS helix was synthesized using the procedures described in (Dimartino et al., “Solid-phase Synthesis of Hydrogen-bond Surrogate-derived α-Helices,” Org. Lett. 7:2389-92 (2005); Chapman & Arora, “Optimized Synthesis of Hydrogen-bond Surrogate Helices: Surprising Effects of Microwave Heating on the Activity of Grubbs Catalysts,” Org. Lett. 8:5825-8 (2006)). The percent helicity of each peptide was determined using circular dichroism spectroscopy in 10 mM phosphate buffered saline as described in (Wang et al., “Evaluation of Biologically Relevant Short α-Helices Stabilized by a Main-chain Hydrogen-bond Surrogate,” J. Am. Chem. Soc. 128:9248-56 (2006)). The affinity of each peptide for p300 was measured by isothermal titration calorimetry analysis (Wiseman et al., “Rapid Measurement of Binding Constants and Heats of Binding Using a New Titration calorimeter,” Anal. Biochem. 179:131-7 (1989); Freire et al., “Isothermal Titration calorimetry,” Anal. Chem. 62:A950-A959 (1990); Chervenak & Toone, “Calorimetric Analysis of the Binding of Lectins with Overlapping Carhohydrate-binding Ligand Specificities,” Biochemistry 34:5685-95 (1995); Aki et al., “Competitive Binding of Drugs to the Multiple Binding Sites on Human Serum Albumin. A calorimetric Study,” J Thermal Anal. calorim. 57:36170 (1999); Graziano et al., “Linkage of Proton Binding to the Thermal Unfolding of Sso7d from the Hyperthermophilic Archaebacterium Sulfolobus solfataricus,” Int'l J. Biol. Macromolecules 26:45-53 (1999); Pluschke & Mutz, “Use of Isothermal Titration calorimetry in the Development of Molecularly Defined Vaccines,” J Thermal Anal. calorim. 57:377-88 (1999); Corbell et al., “A Comparison of Biological and calorimetric Analyses of Multivalent Glycodendrimer Ligands for Concanavalin A,” Tetrahedron-Asymmetry 11:95-111 (2000)). The ability of each peptide to downregulate VEGF transcription in cell culture was evaluated by […] quantitative RT-PCR, as described above. The cytotoxicity of each peptide was determined by monitoring cellular growth and population doubling in the presence of individual peptides at 1μM concentration.

[1] = Percent helicity by circular dichroism spectroscopy; format: physicochemical; details: 10 mM phosphate buffered saline
Description: Helix αA of HIF-1α C-TAD, shown in FIG. 1A and FIG. 1C, is critical for the interaction between the CH1 domain and HIF-1α, because mutation of its residues or hydroxylation of Asn803 is known to disrupt this complex and inhibit HIF-1α mediated transcription (Freedman et al., “Structural Basis for Recruitment of CBP/p300 by Hypoxia-inducible Factor-1α,” Proc. Nat'l Acad. Sci. USA 99:5367-72 (2002); Dames et al., “Structural Basis for Hif-1α/CBP Recognition in the Cellular Hypoxic Response,” Proc. Nat'1 Acad. Sci. USA 99:5271-6 (2002). Development of HBS helices as potential inhibitors of VEGF transcription was begun by mimicking the aA helix region of HIF-1. This helix consists of eight residues, […] (SEQ ID NO: 111), and features three residues, Asp-Cys-Glu, critical for binding with p300/CBP. Several linear peptides and their HBS α-helix analogs were designed to gauge the potential of these molecules to inhibit VEGF transcription in cell culture. Each unconstrained peptide and HBS helix was synthesized using the procedures described in (Dimartino et al., “Solid-phase Synthesis of Hydrogen-bond Surrogate-derived α-Helices,” Org. Lett. 7:2389-92 (2005); Chapman & Arora, “Optimized Synthesis of Hydrogen-bond Surrogate Helices: Surprising Effects of Microwave Heating on the Activity of Grubbs Catalysts,” Org. Lett. 8:5825-8 (2006)). The percent helicity of each peptide was determined using circular dichroism spectroscopy in 10 mM phosphate buffered saline as described in (Wang et al., “Evaluation of Biologically Relevant Short α-Helices Stabilized by a Main-chain Hydrogen-bond Surrogate,” J. Am. Chem. Soc. 128:9248-56 (2006)). The affinity of each peptide for p300 was measured by isothermal titration calorimetry analysis (Wiseman et al., “Rapid Measurement of Binding Constants and Heats of Binding Using a New Titration calorimeter,” Anal. Biochem. 179:131-7 (1989); Freire et al., “Isothermal Titration calorimetry,” Anal. Chem. 62:A950-A959 (1990); Chervenak & Toone, “Calorimetric Analysis of the Binding of Lectins with Overlapping Carhohydrate-binding Ligand Specificities,” Biochemistry 34:5685-95 (1995); Aki et al., “Competitive Binding of Drugs to the Multiple Binding Sites on Human Serum Albumin. A calorimetric Study,” J Thermal Anal. calorim. […] The ability of each peptide to downregulate VEGF transcription in cell culture was evaluated by […] quantitative RT-PCR, as described above. The cytotoxicity of each peptide was determined by monitoring cellular growth and population doubling in the presence of individual peptides at 1μM concentration.

Row | SMILES | helicity (circular dichroism) [%] | % Transcription inhibition in cell culture (Luc) (MDA-MB-231-HRE-Luc cells; 1000 nM) | Kd (p300) [nM] | Inhibition of VEGF transcription in cell culture (in words) (MDA-MB-231-HRE-Luc cells) | % Transcription inhibition in cell culture (Luc) (MDA-MB-231-HRE-Luc cells; luciferase assay, 1 μM peptide) [%] | % Helicity [1] [%] | Affinity for p300 (in words) (p300)
1 | CC(C)[C@H](NC(=O)[C@H](CCC(=O)O)NC(=O)[C@H](CS)NC(=O)[C@H](CC(=O)O)NC(=O)[C@H](Cc1ccc(O)cc1)N1CC=CCCC(=O)N[C@@H]([C@@H](C)O)C(=O)N[C@@H](C)C1=O)C(=O)N[C@@H](CC(N)=O)C(=O)N[C@@H](C)C(N)=O [Compound 20] | 44 | 0 ± 5 (Luc) % | 540 | – | – | – | –
2 | CC(C)[C@H](NC(=O)[C@H](CCC(=O)O)NC(=O)[C@@H](NC(=O)[C@H](CC(=O)O)NC(=O)[C@H](Cc1ccc(O)cc1)N1CC=CCCC(=O)N[C@@H]([C@@H](C)O)C(=O)N[C@@H](C)C1=O)C(C)C)C(=O)N[C@@H](CC(N)=O)C(=O)N[C@@H](C)C(N)=O [Compound 21] | 16 | – | 690 ± 60 | – | – | – | –
3 | C[C@H](NC(=O)[C@H](CC(N)=O)NC(=O)[C@H](Cc1ccc(O)cc1)NC(=O)[C@H](CCC(=O)O)NC(=O)[C@H](CS)NC(=O)[C@H](CC(=O)O)NC(=O)[C@H](C)N1CC=CCCC(=O)N[C@@H]([C@@H](C)O)C(=O)N[C@@H](C)C1=O)C(=O)N[C@@H](CCCNC(=N)N)C(N)=O [Compound 22] | 53 | – | 420 ± 35 | – | – | – | –
4 | CC(=O)N[C@H](C(=O)N[C@@H](CO)C(=O)N[C@@H](Cc1ccc(O)cc1)C(=O)N[C@@H](CC(=O)O)C(=O)N[C@@H](CS)C(=O)N[C@@H](CCC(=O)O)C(=O)N[C@H](C(=O)N[C@@H](CC(N)=O)C(=O)N[C@@H](C)C(N)=O)C(C)C)[C@@H](C)O [Compound 23] (Ac-TSYDCEVNA-NH2) | 14 | – | – | failed to inhibit VEGF transcription in cell culture | 10 ± 5 | 14 | bound p300 with significant affinities
5 | CC(=O)N[C@H](C(=O)N[C@@H](C)C(=O)N[C@@H](Cc1ccc(O)cc1)C(=O)N[C@@H](CC(=O)O)C(=O)N[C@@H](CS)C(=O)N[C@@H](CCC(=O)O)C(=O)N[C@H](C(=O)N[C@@H](CC(N)=O)C(=O)N[C@@H](C)C(N)=O)C(C)C)[C@@H](C)O [Compound 24] (Ac-TAYDCEVNA-NH2) | 15 | – | – | failed to inhibit VEGF transcription in cell culture | 15 ± 5 | 15 | bound p300 with significant affinities

Reference: patent publication US9399666B2, “Inhibiting interaction between the HIF-1ALPHA and p300/CBP with hydrogen bond surrogate-based helices” (New York University, priority 2008, dated 2016)
